{"source": "patent US9505728B2", "about": "“Triazolone compounds and uses thereof” (INCEPTION 2, INC., priority 2012, dated 2016)"}
{"target": "T1, Human PPARα (Homo sapiens, UniProt Q07869)", "T1 construct": "host or cells: proprietary non-human mammalian cells", "T1 sequence (Q07869 1-468)": "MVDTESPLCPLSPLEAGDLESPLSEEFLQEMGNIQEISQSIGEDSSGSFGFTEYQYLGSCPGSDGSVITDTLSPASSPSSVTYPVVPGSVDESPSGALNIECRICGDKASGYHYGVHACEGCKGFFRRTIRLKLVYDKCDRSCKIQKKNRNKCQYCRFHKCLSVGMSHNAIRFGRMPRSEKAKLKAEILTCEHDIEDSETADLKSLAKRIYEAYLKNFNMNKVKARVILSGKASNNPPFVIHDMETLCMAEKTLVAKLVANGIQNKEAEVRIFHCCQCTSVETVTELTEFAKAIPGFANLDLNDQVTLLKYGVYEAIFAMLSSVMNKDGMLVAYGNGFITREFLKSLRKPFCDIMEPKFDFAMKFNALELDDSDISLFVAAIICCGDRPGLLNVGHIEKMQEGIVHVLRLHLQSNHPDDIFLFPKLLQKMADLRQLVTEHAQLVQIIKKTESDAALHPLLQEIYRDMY", "test": "Human PPARα Reporter Assay (luciferase)", "type": "cell-based", "conditions": "human PPARα reporter cells, overnight incubation, antagonism; read-out: Luciferase IC50", "method_in_brief": "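Non-human mammalian cells constitutively expressing human PPARα with a PPARα-responsive luciferase reporter were dosed with compounds right after plating. After overnight incubation, media removed and detection reagent added; luminescence taken as proportional to PPARα activation, agonist or antagonist mode.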", "units": {"IC50": "nM"}}
{"smiles": "CCn1c(CCCc2ccc(-c3ccc(C4(F)COC4)nc3)cc2)nn(Cc2ccc(C(C)(C)C)cc2)c1=O", "note": "[Example 166, 1-(4-(tert-Butyl)benzyl)-4-ethyl-3-(3-(4-(6-(3-fluorooxetan-3-yl)pyridine-3-yl)phenyl)propyl)-1H-1,2,4-triazol-5(4H)-one]", "IC50": 91}
{"smiles": "CC(C)(C)c1ccc(Cn2nc(CCCc3ccc(-c4ccc(C5(O)COC5)cc4)cc3)[nH]c2=O)cc1", "note": "[Example 167, 1-(4-(tert-Butyl)benzyl)-3-(3-(4%(3-hydroxyoxetan-3-yl)-[1,1′-biphenyl]-4-yl)propyl)-1H-1,2,4-triazol-5(4H)-one]", "IC50": 454}
{"smiles": "CCCOc1ccc(-c2ccc(CCCc3nn(Cc4ccc(C(C)(C)C)cc4)c(=O)n3CC)cc2)cc1C(=O)O", "note": "[Example 168, 4′-(3-(1-(4-(tert-Butyl)benzyl)-4-ethyl-5-oxo-4,5-dihydro-1H-1,2,4-triazol-3-yl)propyl)-4-propoxy-[1,1′-biphenyl]-3-carboxylic acid]", "IC50": 9}
{"smiles": "CCNC(=O)Nc1ccc(-c2ccc(CCCc3nn(Cc4ccc(C(C)(C)C)cc4)c(=O)n3CC)cc2)nc1", "note": "[Example 169, 1-(6-(4-(3-(1-(4-(tert-Butyl)benzyl)-4-ethyl-5-oxo-4,5-dihydro-1H-1,2,4-triazol-3-yl)propyl)phenyl)pyridin-3-yl)-3-ethylurea]", "IC50": 535}
{"smiles": "CCn1c(CCCc2ccc(-c3cnc(C4(F)COC4)nc3)cc2)nn(Cc2ccc(C(C)(C)C)cc2)c1=O", "note": "[Example 170, 1-(4-(tert-Butyl)benzyl)-4-ethyl-3-(3-(4-(2-(3-fluorooxetan-3-yl)pyrimidin-5-yl)phenyl)propyl)-1H-1,2,4-triazol-5(4H)-one]", "IC50": 41}
{"smiles": "CCNC(=O)Nc1cccc(-c2ccc(CCCc3nn(Cc4ccc(C(C)(C)C)cc4)c(=O)n3CC)cc2)n1", "note": "[Example 171, 1-(6-(4-(3-(1-(4-(tert-Butyl)benzyl)-4-ethyl-5-oxo-4,5-dihydro-1H-1,2,4-triazol-3-yl)propyl)phenyl)pyridin-2-yl)-3-ethylurea]", "IC50": 816}
{"smiles": "CCn1c(CCCc2ccc(-c3cccc(CN)c3)cc2)nn(Cc2ccc(C(C)(C)C)cc2)c1=O", "note": "[Example 172, 3-(3-{4-[3-(Aminomethyl)phenyl]phenyl}propyl)-1-{[4-(tert-butyl)phenyl]methyl}-4-ethyl-1,2,4-triazolin-5-one]", "IC50": 647}
{"smiles": "CCn1c(CCCc2ccc(-c3cnc(C4(O)COC4)nc3)cc2)nn(Cc2ccc(C(C)(C)C)cc2)c1=O", "note": "[Example 173, 1-(4-(tert-Butyl)benzyl)-4-ethyl-3-(3-(4-(2-(3-hydroxyoxetan-3-yl)pyrimidin-5-yl)phenyl)propyl)-1H-1,2,4-triazol-5(4H)-one]", "IC50": 126}
{"smiles": "CCn1c(CCCc2ccc(-c3ccc(C4(O)COC4)cc3)cc2)nn(Cc2ccc(C(C)(C)C)cc2)c1=O", "note": "[Example 174, 1-(4-(tert-Butyl)benzyl)-4-ethyl-3-(3-(4′-(3-hydroxyoxetan-3-yl)-[1,1′-biphenyl]-4-yl)propyl)-1H-1,2,4-triazol-5(4H)-one]", "IC50": 144}
{"smiles": "CCn1c(CCCc2ccc(-c3ccc(C4(O)CCC4)cc3)cc2)nn(Cc2ccc(C(C)(C)C)cc2)c1=O", "note": "[Example 176, 1-(4-(tert-Butyl)benzyl)-4-ethyl-3-(3-(4′-(1-hydroxycyclobutyl)-[1,1′-biphenyl]-4-yl)propyl)-1H-1,2,4-triazol-5(4H)-one]", "IC50": 78}
{"smiles": "CCn1c(CCCc2ccc(-c3cccc(CNS(=O)(=O)c4ccccc4)c3)cc2)nn(Cc2ccc(C(C)(C)C)cc2)c1=O", "note": "[Example 177, 1-{[4-(tert-Butyl)phenyl]methyl}-4-ethyl-3-{3-[4-(3-{[(phenylsulfonyl)amino]methyl}phenyl)phenyl]propyl}-1,2,4-triazolin-5-one]", "IC50": 419}
{"smiles": "CCn1c(CCCc2ccc(-c3cccc(CNS(C)(=O)=O)c3)cc2)nn(Cc2ccc(C(C)(C)C)cc2)c1=O", "note": "[Example 178, 1-{[4-(tert-Butyl)phenyl]methyl}-4-ethyl-3-{3-[4-(3-{[(methylsulfonyl)amino]methyl}phenyl)phenyl]propyl}-1,2,4-triazolin-5-one]", "IC50": 417}
{"smiles": "CCn1c(CCCc2ccc(-c3ccc(OC)c(CCC(=O)O)c3)cc2)nn(Cc2ccc(C(C)(C)C)cc2)c1=O", "note": "[Example 179, 3-(5-{4-[3-(1-{[4-(tert-Butyl)phenyl]methyl}-4-ethyl-5-oxo(1,2,4-triazolin-3-yl))propyl]phenyl}-2-methoxyphenyl)propanoic acid]", "IC50": 121}
{"smiles": "CCn1c(CCCc2ccc(-c3ccc(OC)c(CNC)c3)cc2)nn(Cc2ccc(C(C)(C)C)cc2)c1=O", "note": "[Example 180, 1-{[4-(tert-Butyl)phenyl]methyl}-4-ethyl-3-[3-(4-{4-methoxy-3-[(methylamino)methyl]phenyl}phenyl)propyl]-1,2,4-triazolin-5-one]", "IC50": 640}
{"smiles": "CCn1c(CCCc2ccc(-c3ncc(OC)c(C(=O)O)n3)cc2)nn(Cc2ccc(C(C)(C)C)cc2)c1=O", "note": "[Example 181, 2-(4-(3-(1-(4-(tert-Butyl)benzyl)-4-ethyl-5-oxo-4,5-dihydro-1H-1,2,4-triazol-3-yl)propyl)phenyl)-5-methoxypyrimidine-4-carboxylic acid]", "IC50": 846}
{"smiles": "CCn1c(CCCc2ccc(-c3ccc(OC)c(CCNS(=O)(=O)c4ccccc4)c3)cc2)nn(Cc2ccc(C(C)(C)C)cc2)c1=O", "note": "[Example 182, 1-{[4-(tert-Butyl)phenyl]methyl}-4-ethyl-3-{3-[4-(4-methoxy-3-{2-[(phenylsulfonyl)amino]ethyl}phenyl)phenyl]propyl}-1,2,4-triazolin-5-one]", "IC50": 414}
{"smiles": "CCn1c(CCCc2ccc(-c3ccc(OC)c(CCNS(C)(=O)=O)c3)cc2)nn(Cc2ccc(C(C)(C)C)cc2)c1=O", "note": "[Example 183, 1-{[4-(tert-Butyl)phenyl]methyl}-4-ethyl-3-{3-[4-(4-methoxy-3-{2-[(methylsulfonyl)amino]ethyl}phenyl)phenyl]propyl}-1,2,4-triazolin-5-one]", "IC50": 440}
{"smiles": "CCn1c(CCCc2ccc(-c3ccc(OC)c(CN)c3)cc2)nn(Cc2ccc(C(C)(C)C)cc2)c1=O", "note": "[Example 184, 3-(3-{4-[3-(Aminomethyl)-4-methoxyphenyl]phenyl}propyl)-1-{[4-(tert-butyl)phenyl]methyl}-4-ethyl-1,2,4-triazolin-5-one]", "IC50": 534}
{"smiles": "CCn1c(CCCc2ccc(-c3ccc(OC)c(CNS(=O)(=O)c4ccccc4)c3)cc2)nn(Cc2ccc(C(C)(C)C)cc2)c1=O", "note": "[Example 185, 1-{[4-(tert-Butyl)phenyl]methyl}-4-ethyl-3-{3-[4-(4-methoxy-3-{[(phenylsulfonyl)amino]methyl}phenyl)phenyl]propyl}-1,2,4-triazolin-5-one]", "IC50": 423}
{"smiles": "CCn1c(CCCc2ccc(-c3ccc(OC)c(CNS(C)(=O)=O)c3)cc2)nn(Cc2ccc(C(C)(C)C)cc2)c1=O", "note": "[Example 186, 1-{[4-(tert-Butyl)phenyl]methyl}-4-ethyl-3-{3-[4-(4-methoxy-3-{[(methylsulfonyl)amino]methyl}phenyl)phenyl]propyl}-1,2,4-triazolin-5-one]", "IC50": 587}
{"smiles": "CCn1c(CCCc2ccc(-c3ccc(C4(O)CCOCC4)cc3)cc2)nn(Cc2ccc(C(C)(C)C)cc2)c1=O", "note": "[Example 187, 1-(4-(tert-Butyl)benzyl)-4-ethyl-3-(3-(4′-(4-hydroxytetrahydro-2H-pyran-4-yl)-[1,1′-biphenyl]-4-yl)propyl)-1H-1,2,4-triazol-5(4H)-one]", "IC50": 607}
{"smiles": "CCn1c(CCCc2ccc(-c3ccc(OC)c(CNS(=O)(=O)Cc4ccccc4)c3)cc2)nn(Cc2ccc(C(C)(C)C)cc2)c1=O", "note": "[Example 188, 1-{[4-(tert-Butyl)phenyl]methyl}-4-ethyl-3-(3-{4-[4-methoxy-3-({[benzylsulfonyl]amino}methyl)phenyl]phenyl}propyl)-1,2,4-triazolin-5-one]", "IC50": 430}
{"smiles": "CCn1c(CCCc2ccc(-c3ccc(OC)c(NS(=O)(=O)CC)n3)cc2)nn(Cc2ccc(C(C)(C)C)cc2)c1=O", "note": "[Example 189, 1-{[4-(tert-Butyl)phenyl]methyl}-4-ethyl-3-[3-(4-{6-[(ethylsulfonyl)amino]-5-methoxy(2-pyridyl)}phenyl)propyl]-1,2,4-triazolin-5-one]", "IC50": 36}
{"smiles": "CCn1c(CCCc2ccc(-c3ccc(OC)c(NS(=O)(=O)C4CC4)n3)cc2)nn(Cc2ccc(C(C)(C)C)cc2)c1=O", "note": "[Example 190, 1-{[4-(tert-Butyl)phenyl]methyl}-4-ethyl-3-[3-(4-{6-[(cyclopropylsulfonyl)amino]-5-methoxy(2-pyridyl)}phenyl)propyl]-1,2,4-triazolin-5-one]", "IC50": 12}
{"smiles": "CCn1c(CCCc2ccc(-c3ccc(C4(F)COC4)cn3)cc2)nn(Cc2ccc(C(C)(C)C)cc2)c1=O", "note": "[Example 191, 1-(4-(tert-Butyl)benzyl)-4-ethyl-3-(3-(4-(5-(3-fluorooxetan-3-yl)pyridine-2-yl)phenyl)propyl)-1H-1,2,4-triazol-5(4H)-one]", "IC50": 41}
{"smiles": "CCn1c(CCCc2ccc(-c3ccc(OC)c(NS(=O)(=O)C4CCCCC4)n3)cc2)nn(Cc2ccc(C(C)(C)C)cc2)c1=O", "note": "[Example 192, 1-{[4-(tert-Butyl)phenyl]methyl}-4-ethyl-3-[3-(4-{6-[(cyclohexylsulfonyl)amino]-5-methoxy(2-pyridyl)}phenyl)propyl]-1,2,4-triazolin-5-one]", "IC50": 12}
{"smiles": "CCn1c(CCCc2ccc(-c3cc(OC)cc(C(=O)O)c3)cc2)nn(Cc2ccc(C(C)(C)C)cc2)c1=O", "note": "[Example 193, 3-{4-[3-(1-{[4-(tert-Butyl)phenyl]methyl}-4-ethyl-5-oxo(1,2,4-triazolin-3-yl))propyl]phenyl}-5-methoxybenzoic acid]", "IC50": 21}
